Experimental findings from paper PMC6377692 (EJNMMI Research, 2019) are described below.

The structures appear in SMILES notation. Bridge positions count the residues as written; N and C are the ends. Square brackets hold non-standard residues; d marks the D form. Peptide text beside a SMILES is read from it. * marks the point of attachment. DO3A(CH2CH2SO2CH2CH2) = O=C(O)CN1CCN(CCS(=O)(=O)CC*)CCN(CC(=O)O)CCN(CC(=O)O)CC1; Ala(4-thiazolyl) = N[C@@H](Cc1cscn1)C(=O)O

Data set [1] concerns the target T1, human GCGR (HEK293 cells transfected with human GCGR) (Homo sapiens, UniProt P47871).
T1 construct: expressed in transfected cells; host or cells: HEK293
Put plainly: in vitro autoradiography, blocking on sections of frozen pellet of GCGR-transfected cells. It counts as binding. The following applies: n = 3. The method, then:
Sections were added in duplicates in each individual assay, and each experiment was repeated at least three times with different batches of radioligand, except for rat sections that were only performed in one assay.
After incubation, the sections were washed three times in 150 mL PBS. Sections were carefully dried at 37 °C and then exposed against a digital phosphorimager plate overnight together with a 10-μl droplet of radioactive reference (cross-calibrated against a gamma counter) on an absorbent paper attached to an object glass. The phosphor imager plates were scanned using a Cyclone Plus Phosphor imager (Perkin Elmer) at 600 dpi, and the resulting autoradiograms analyzed by ImageJ software (NIH, Bethesda). Pixel values in counts/mm^2 were converted to Bq/mm^2 by the included reference. Bq/mm^2 was further converted to fmol/mm^2 by the known specific radioactivity (fmol/Bq) of each batch of radiopharmaceutical.

A short description of data set [2]: rat in vivo distribution (ex vivo organ counting). Also on record: species or system Sprague Dawley rats. The following applies: male, Sprague Dawley, iv, total radioactivity, i.v. The method, then:
The in vivo distribution over time was performed to identify the optimal time point for an in vivo blocking study and to calculate the residence time for dosimetry (see detail below). Thus, measurement at more time points was prioritized over repetitions at individual time points.
The animals were kept at a constant temperature (25 °C) and humidity (50%) in a 12-h light-dark cycle. Food and water were provided ad libitum.
Each radiotracer was administered into the tail vein of conscious animals as a bolus in 0.5–0.6 mL of PBS (pH 7.4) as vehicle. […] Given the constraints of the specific radioactivity for each radioligand, the dosing was designed to minimize the given peptide mass (in order to stay below mass effect levels) while still yielding enough radioactive signal for well counter measurements.
At pre-determined post injection time points (5, 10, 20, 40, 60, 90, 120, and 180 min), two animals per each point were euthanized by CO2. Tissues were immediately extracted and weighed, and the radioactive content was measured in the well counter. […] The well counter readings were decay corrected to the time of injection and the mass of the extracted tissues and expressed as Bq/cc. […]

T1 sequence (P47871 26-477): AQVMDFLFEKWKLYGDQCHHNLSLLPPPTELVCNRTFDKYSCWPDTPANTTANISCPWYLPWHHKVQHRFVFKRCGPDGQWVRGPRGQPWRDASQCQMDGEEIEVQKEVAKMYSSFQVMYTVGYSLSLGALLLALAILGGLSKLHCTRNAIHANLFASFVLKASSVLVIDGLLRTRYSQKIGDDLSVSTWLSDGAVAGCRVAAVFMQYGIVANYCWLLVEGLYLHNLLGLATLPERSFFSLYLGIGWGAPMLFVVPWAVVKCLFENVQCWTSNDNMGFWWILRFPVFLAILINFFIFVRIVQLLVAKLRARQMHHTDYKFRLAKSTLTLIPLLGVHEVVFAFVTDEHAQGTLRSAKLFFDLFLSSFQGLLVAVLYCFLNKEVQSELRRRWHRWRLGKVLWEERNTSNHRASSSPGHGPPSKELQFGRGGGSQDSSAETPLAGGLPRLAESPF

Regarding `CC[C@H](C)[C@H](NC(=O)[C@H](Cc1ccccc1)NC(=O)[C@H](CCC(=O)O)NC(=O)[C@@H]1CCCCNC(=O)CC[C@H](NC(=O)[C@H](CC(=O)O)NC(=O)[C@H](CC(C)C)NC(=O)[C@H](CCC(N)=O)NC(=O)[C@H](CCCCN)NC(=O)[C@H](CO)NC(=O)[C@H](Cc2ccc(O)cc2)NC(=O)[C@H](CC(=O)O)NC(=O)[C@H](CO)NC(=O)[C@@H](NC(=O)[C@H](Cc2ccccc2)NC(=O)[C@@H](NC(=O)CNC(=O)[C@H](CCC(N)=O)NC(=O)[C@@H](CO)NC(=O)[C@@H](N)Cc2cscn2)[C@@H](C)O)[C@@H](C)O)C(=O)N[C@@H](CCC(N)=O)C(=O)N[C@@H](CCCNC(=N)N)C(=O)N[C@@H](C)C(=O)N1)C(=O)N[C@@H](CCC(=O)O)C(=O)N[C@@H](Cc1c[nH]c2ccccc12)C(=O)N[C@@H](CC(C)C)C(=O)N[C@@H](CC(C)C)C(=O)N[C@@H](C)C(=O)N[C@H](C(=O)NCC(=O)N1CCC[C@H]1C(=O)N[C@@H](CCC(=O)O)C(=O)N[C@@H](CO)C(=O)NCC(=O)N[C@@H](C)C(=O)N1CCC[C@H]1C(=O)N1CCC[C@H]1C(=O)N1CCC[C@H]1C(=O)N[C@@H](CO)C(=O)N[C@@H](CSCCS(=O)(=O)CCN1CCN(CC(=O)O)CCN(CC(=O)O)CCN(CC(=O)O)CC1)C(N)=O)[C@@H](C)O` [[^68Ga]Ga-DO3A-S01-GCG, metal not drawn] (H-[Ala(4-thiazolyl)][dS]QGTFTSDYSKQLDEQRAKEFIEWLLATGPESGAPPPSC(DO3A(CH2CH2SO2CH2CH2))-NH2; lactam 16-20), the “effect of co-incubation with GCG on binding to sections of GCGR-transfected cell pellet” value in data set [1] (10 μM GCG) is listed as “completely abolished”. The “effect of co-incubation with own precursor peptide on binding to sections of GCGR-transfected cell pellet” value in data set [1] (10 μM precursor) is “completely abolished”. Further, in data set [2] (liver, 3.6 ug/kg, after 20 min, read-out: uptake in the liver, plateau), the SUV amounted to 3 SUV. For the same compound, the tissue to tissue ratio in data set [2] (liver/blood, after 90 min) is above 30.
